Results published in patent US20250388602A1 (Genase Therapeutics B.V., priority 2022, published 2025).

What was measured:
DENV-2 = assay: anti-DENV-2 CPE reduction assay in A549 cells (MTS); format: cell-based, DENV-2 laboratory-adapted New Guinea C strain
Procedure: The lung cancer epithelial cell line A549 was obtained from the American Type Culture Collection (ATCC; Rockville, MD, USA) and cultured in MEM medium (Gibco BRL, Gaithersburg, MD, USA) with 10% fetal calf serum (FCS; Gibco BRL), 2 mM L-glutamine (Gibco BRL) and 0.075% sodium bicarbonate (Gibco BRL).
The ZIKV MR766 prototype strain and the DENV-2 laboratory-adapted New Guinea C strain were obtained from ATCC and stocks were grown in the C6/36 mosquito cell line (ATCC). Viral stock titers were determined using plaque assay in BHK-21 cells (ATCC).
The anti-ZIKV and anti-DENV-2 activity in A549 cells was determined using a tetrazolium-based colorimetric cytopathic effect (CPE) reduction assay. This assay has been described in detail before (Virology. 2021; doi.org/10.1016/j.virol.2021.07.003). […] Three hours after MTS incubation, virus was inactivated using 0.5% Triton X-100 (Thermo Fisher Scientific, Waltham, MA, USA) and the absorbance was then recorded at 490 nm with a 96-well plate reader and compared with four cell control replicates (cells without virus and drugs) and four virus control wells (cells with virus but without drug). […] Absorbance was recorded using the VersaMax ELISA™ microplate reader (Molecular Devices) and analyzed with the Softmax Pro® software (Molecular Devices, Version 4.0). […]

CYP2A6 = CYP2A6 (Homo sapiens (Human), UniProt P11509); assay: biochemical; format: in vitro ADME
Procedure: (§1) CYP inhibition: Co-incubation of compounds with P450 enzyme-selective substrates was performed using pooled human liver microsomes (Cat. No. H0610, Xenotech), to determine their potential to cause drug-drug interactions. The assay was performed in duplicate. The formation of acetaminophen, 7′-hydoxycoumarin, hydrobupropion, N-desethylamodiaquine, 4′-hydroxydiclofenac, 4′-hydroxymephenytoin, 1′-hydroxybufuralol, 6″-hydroxychlorzoxazone were quantified as markers for CYP1A2, CYP2A6, […], CYP2C8, CYP2C9, CYP2C19, […], CYP2E1, respectively. CYP3A4 inhibition was measured using 2 substrates, measuring the formation of […] (3A4-T), and 1′-hydroxymidazolam (3A4-M). The incubation was carried out in 96 deep well plates each well containing: 179 μL of the master solution (0.2 mg/mL microsomes plus CYP substrate (see below for final substrate concentration and incubation time for the different CYP assays)) in 100 mM phosphate buffer and 1 μL of the compound working solution or vehicle. The final concentrations of the compounds in the assay was 30 μM when using a single dose or 0.1, 0.3, 1, 3, 10 and 30 μM for a dose response.
(§2) The incubation plate was placed into a water bath and pre-warmed at 37° C. for 5 minutes before the reactions were started by the addition of 20 μL of 10 mM NADPH solution and incubated at 37° C. for the time listed above. The reaction was stopped by addition of 1.5 volumes (300 μL) of cold ACN containing 3% formic acid and 200 nM tolbutamide, 200 nM aprozolam and 200 nM labalol. The plate was centrifuged at 3,220 g for 50 minutes and then 200 μL of the supernatant was transferred to the analysis plate for LC/MS/MS analysis. The respective metabolite formation from each probe substrate was compared with that observed for the solvent control incubations.

CYP2C19 = CYP2C19 (Homo sapiens (Human), UniProt P33261); assay: biochemical; format: in vitro ADME
Procedure: as §1, §2

CYP2C8 = CYP2C8 (Homo sapiens (Human), UniProt P10632); assay: biochemical; format: in vitro ADME
Procedure: as §1, §2

CYP2C9 = CYP2C9 (Homo sapiens (Human), UniProt P11712); assay: biochemical; format: in vitro ADME
Procedure: as §1, §2

CYP3A4 = CYP3A4 (Homo sapiens (Human), UniProt P08684); assay: biochemical; format: in vitro ADME
Procedure: as §1, §2

Human CYPs = assay: CYP inhibition panel in pooled human liver microsomes, overall statement; format: in vitro ADME; settings: compared to C-analogue
Procedure: as §1
The incubation plate was placed into a water bath and pre-warmed at 37° C. for 5 minutes before the reactions were started by the addition of 20 μL of 10 mM NADPH solution and incubated at 37° C. for the time listed above. […]

Sequence of CYP3A4 (P08684 whole entry): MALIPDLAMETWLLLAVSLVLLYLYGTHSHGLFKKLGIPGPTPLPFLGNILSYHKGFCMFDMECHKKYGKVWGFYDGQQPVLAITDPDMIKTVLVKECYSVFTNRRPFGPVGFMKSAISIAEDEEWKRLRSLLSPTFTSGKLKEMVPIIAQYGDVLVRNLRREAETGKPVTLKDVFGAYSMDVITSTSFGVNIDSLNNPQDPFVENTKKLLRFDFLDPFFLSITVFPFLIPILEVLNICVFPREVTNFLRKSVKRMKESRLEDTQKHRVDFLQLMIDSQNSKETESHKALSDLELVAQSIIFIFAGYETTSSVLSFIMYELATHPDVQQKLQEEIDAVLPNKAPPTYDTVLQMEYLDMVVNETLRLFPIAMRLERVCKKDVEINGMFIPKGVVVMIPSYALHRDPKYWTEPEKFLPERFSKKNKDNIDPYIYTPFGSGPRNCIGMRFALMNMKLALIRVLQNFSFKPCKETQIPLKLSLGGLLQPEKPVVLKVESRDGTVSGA
Sequence of CYP2C9 (P11712 whole entry): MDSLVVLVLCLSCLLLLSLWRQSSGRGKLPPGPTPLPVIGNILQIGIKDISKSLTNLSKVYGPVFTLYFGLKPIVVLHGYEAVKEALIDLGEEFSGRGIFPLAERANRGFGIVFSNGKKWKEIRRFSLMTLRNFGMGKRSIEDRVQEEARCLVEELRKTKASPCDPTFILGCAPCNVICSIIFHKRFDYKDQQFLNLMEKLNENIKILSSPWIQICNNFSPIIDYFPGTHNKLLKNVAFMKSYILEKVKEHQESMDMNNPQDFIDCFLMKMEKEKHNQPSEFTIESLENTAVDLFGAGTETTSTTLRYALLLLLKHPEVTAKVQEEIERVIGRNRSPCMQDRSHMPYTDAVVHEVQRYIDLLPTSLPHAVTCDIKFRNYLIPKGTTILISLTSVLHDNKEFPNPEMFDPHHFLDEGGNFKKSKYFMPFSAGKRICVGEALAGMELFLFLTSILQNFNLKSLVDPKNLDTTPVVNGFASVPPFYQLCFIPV
Sequence of CYP2A6 (P11509 whole entry): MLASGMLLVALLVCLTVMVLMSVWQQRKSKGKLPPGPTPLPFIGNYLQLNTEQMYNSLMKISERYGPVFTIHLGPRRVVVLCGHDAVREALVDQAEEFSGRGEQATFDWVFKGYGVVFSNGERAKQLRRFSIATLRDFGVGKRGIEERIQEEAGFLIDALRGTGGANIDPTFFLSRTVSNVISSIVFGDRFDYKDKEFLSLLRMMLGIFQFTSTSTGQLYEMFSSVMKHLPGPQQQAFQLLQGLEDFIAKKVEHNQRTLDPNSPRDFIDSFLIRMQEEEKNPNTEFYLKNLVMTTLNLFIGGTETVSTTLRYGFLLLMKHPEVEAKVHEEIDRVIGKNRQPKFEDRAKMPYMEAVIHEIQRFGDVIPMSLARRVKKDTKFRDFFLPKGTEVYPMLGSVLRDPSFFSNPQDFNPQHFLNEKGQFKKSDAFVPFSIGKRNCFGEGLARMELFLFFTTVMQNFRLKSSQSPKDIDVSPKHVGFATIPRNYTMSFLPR
Sequence of CYP2C19 (P33261 whole entry): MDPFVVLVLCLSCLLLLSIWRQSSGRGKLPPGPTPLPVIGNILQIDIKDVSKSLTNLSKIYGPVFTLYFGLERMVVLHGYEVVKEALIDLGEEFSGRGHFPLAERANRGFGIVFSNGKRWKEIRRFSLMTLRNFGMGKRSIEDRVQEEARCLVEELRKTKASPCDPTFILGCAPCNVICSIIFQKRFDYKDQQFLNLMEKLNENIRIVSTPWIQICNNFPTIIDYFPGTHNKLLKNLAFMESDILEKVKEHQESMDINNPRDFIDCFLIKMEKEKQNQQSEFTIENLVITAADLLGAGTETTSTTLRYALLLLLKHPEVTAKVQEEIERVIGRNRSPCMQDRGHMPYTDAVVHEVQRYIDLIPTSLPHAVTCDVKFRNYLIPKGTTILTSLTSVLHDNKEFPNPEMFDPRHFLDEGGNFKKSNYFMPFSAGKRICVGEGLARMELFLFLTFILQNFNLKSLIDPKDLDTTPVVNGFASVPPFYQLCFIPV
Sequence of CYP2C8 (P10632 whole entry): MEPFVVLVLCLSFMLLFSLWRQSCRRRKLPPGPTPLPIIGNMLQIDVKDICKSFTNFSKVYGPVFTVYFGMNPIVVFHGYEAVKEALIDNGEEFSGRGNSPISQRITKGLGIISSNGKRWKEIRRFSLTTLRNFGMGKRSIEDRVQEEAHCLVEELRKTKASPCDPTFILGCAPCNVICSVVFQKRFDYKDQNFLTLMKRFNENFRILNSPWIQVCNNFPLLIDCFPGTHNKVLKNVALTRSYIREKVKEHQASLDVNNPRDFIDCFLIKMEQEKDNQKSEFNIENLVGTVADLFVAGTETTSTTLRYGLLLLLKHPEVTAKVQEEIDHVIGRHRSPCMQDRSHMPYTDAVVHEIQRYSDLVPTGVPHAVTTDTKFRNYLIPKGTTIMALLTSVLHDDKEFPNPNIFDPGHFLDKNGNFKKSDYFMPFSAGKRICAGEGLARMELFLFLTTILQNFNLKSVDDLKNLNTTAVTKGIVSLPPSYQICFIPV

COc1ccc(F)c(-n2ncc3c2COC[C@H]3NC(=O)c2ncn3c2CCCC3)c1Cl (single isomer, unassigned) [Ex-9]
antiviral activity against DENV-2 (DENV-2; A549 cells): demonstrating antiviral activity
IC50 (DENV-2; Dengue virus, DENV2, A549, 96 h, read-out: IC50 DENV-2 MTS): 0.0016 ± 0.001 µM
HLM % remaining (in vitro; % remaining at 60 min, 1 μM): 100%
half-life at 1 μM (in vitro; both, human, pooled liver microsomes): > 6.08 h
IC50 (CYP2A6): > 30 µM
IC50 (CYP2C19): > 30 µM
IC50 (CYP2C8): > 30 µM
IC50 (CYP2C9): > 30 µM
IC50 (CYP3A4; IC50 CYP3A4-M, substrate Midozolam): > 30 µM
IC50 (CYP3A4; IC50 CYP3A4-T, substrate Testosterone): > 30 µM
inhibition of human CYPs (Human CYPs): No Inhibition
